Measurements reported in article PMC12202533, “Mechanistic Insights and Anti-cancer Activity of 2H-benzo[b][1,4]oxazin-3(4H)-one Linked 1,2,3-Triazoles in Human Cancer Cells” (Frontiers in Pharmacology, 2025).
Where two headings read alike, the source gives them in different places. Each block holds one compound with its values, some of them ahead of it.

Assays:
HepG2 cells = tested on: HepG2 cells; parameters: method as in Xie et al., 2023; conditions: ref Xie et al., 2023, cited from earlier work
A549 lung cancer cell = tested on: A549 lung cancer cell; parameters: method as in Zhou et al. (2014); conditions: by inducing autophagy and cell cycle arrest; ref Zhou et al. (2014); cited from earlier work
topoisomerase II [1] = molecular target: topoisomerase II; parameters: method as in Mohammed et al., 2022; conditions: ref Mohammed et al., 2022; cited from earlier work
HCT116 cells [2] = tested on: HCT116 cells; parameters: method as in Mohammed et al., 2022; conditions: MTT assay; ref Mohammed et al., 2022; cited from earlier work
tubulin polymerization = tested on: tubulin polymerization; parameters: method as in El Hamaky et al., 2024; conditions: ref El Hamaky et al., 2024; cited from earlier work
topoisomerase I = tested on: topoisomerase I; parameters: method as in El Hamaky et al., 2024; conditions: ref El Hamaky et al., 2024; cited from earlier work
topoisomerase II [3] = tested on: topoisomerase II; parameters: method as in El Hamaky et al., 2024; conditions: ref El Hamaky et al., 2024; cited from earlier work
HCT116 cells [4] = tested on: HCT116 cells; parameters: method as in El Hamaky et al., 2024; conditions: ref El Hamaky et al., 2024, cited from earlier work
A549 [5] = tested on: A549; parameters: method as in Rajitha et al., 2011; conditions: ref Rajitha et al., 2011; cited from earlier work
MV4-11 = tested on: MV4-11; parameters: method as in Rajitha et al., 2011; conditions: ref Rajitha et al., 2011; cited from earlier work
DLD-1 = tested on: DLD-1; parameters: method as in Rajitha et al., 2011; conditions: ref Rajitha et al., 2011; cited from earlier work
A549 cells [6] = tested on: A549 cells; parameters: method as in Bollu et al., 2017; conditions: ref Bollu et al., 2017; cited from earlier work
[7] = CCK-8 cell viability assay, normal cell line; type: cell-based; conditions: human, BEAS-2B cells (normal cell line), BEAS-2B normal cell line, read-out: Cell viability (100%), 40 μM, 48 h, BEAS-2B
Method: (§1) In order to investigate the anticancer activity of new synthetic 1,4-benzoxazinone-linked 1,2,3-triazole compounds, we chose several cancer cell lines, including A549 (lung), Huh7 (liver), MCF-7 (breast), HCT-116 (colon), and SKOV3 (ovary), and measured cell viability using the CCK-8 assay. Cells were exposed to 40 μM of the compounds for 48 h, and then cell viability was determined. […] In addition, we used the reference drug gefitinib as a positive control and measured its cell viability on different cell lines. […] We used BEAS-2B cells as a normal cell line to determine the toxic effects of these compounds on normal cells. […] Furthermore, we evaluated the IC50 of these compounds in A549.
(§2) Cells were cultured in DMEM or RPMI 1640 medium containing 10% FBS and 1% penicillin/streptomycin at 37°C and 5% CO2. The CCK-8 assay was performed on several human cancer cell lines, including A549, Huh7, MCF-7, HCT-116, and SKOV3, according to the manufacturer’s instructions. Cells were plated at a density of 5 × 10^3 cells per well in a 96-well plate. After 24 h of incubation, cells were treated with 40 μM compounds for 48 h. Cell viability was assessed by adding 10 μL of CCK-8 reagent, dissolved in the cell culture medium, and incubating for 1 h. Absorbance was measured at 450 nm using a microplate reader. IC50 values were determined using a dose-response curve with six concentrations (0, 10, 20, 40, 80, and 160 μM), and IC50 values were calculated using GraphPad Prism software.

A549 [8] = experiment: CCK-8 cell viability assay and IC50 measurement; type: cell-based, human; conditions: Homo sapiens; for viability at 40 µM: CCK-8, read-out: Cell viability (100%), 40 μM, 48 h, A549
Method: as §1
(§3) Human cancer cell lines A549, Huh7, MCF-7, HCT-116, and SKOV3 were obtained from ATCC. The cells were cultured in DMEM or RPMI 1640 medium supplemented with 10% FBS and 1% penicillin/streptomycin and incubated at 37°C in a CO2-humidified atmosphere.
as §2

SKOV3 = experiment: CCK-8 cell viability assay; type: cell-based; conditions: Homo sapiens, SK-OV-3, SKOV3, 40 μM, 48 h, read-out: Cell viability (100%), 40 μM, 48 h, SKOV3
Method: as §1, §3, §2

MCF-7 = experiment: CCK-8 cell viability assay; type: cell-based; conditions: Homo sapiens, MCF7, MCF-7, 40 μM, 48 h, read-out: Cell viability (100%), 40 μM, 48 h, MCF-7
Method: as §1, §3, §2

Huh7 = experiment: CCK-8 cell viability assay; type: cell-based; conditions: Homo sapiens, Huh-7, Huh7, 40 μM, 48 h, read-out: Cell viability (100%), 40 μM, 48 h, Huh7
Method: as §1, §3, §2

HCT-116 = experiment: CCK-8 cell viability assay; type: cell-based; conditions: Homo sapiens, HCT-116, 40 μM, 48 h, read-out: Cell viability (100%), 40 μM, 48 h, HCT-116
Method: as §1, §3, §2

HeLa cells = tested on: HeLa cells; parameters: method as in Srinivas Reddy et al., 2022; conditions: ref Srinivas Reddy et al., 2022; cited from earlier work
A549 cells [9] = tested on: A549 cells; parameters: method as in Yan et al., 2019; conditions: ref Yan et al., 2019; cited from earlier work
HeLa = tested on: HeLa; parameters: method as in Yan et al., 2019; conditions: ref Yan et al., 2019; cited from earlier work
PI3Kα = tested on: PI3Kα; parameters: method as in Yan et al., 2019; conditions: ref Yan et al., 2019; read-out: IC50 against PI3Kα; cited from earlier work
[10] = parameters: method as in Yan et al., 2019; conditions: mice; ref Yan et al., 2019; cited from earlier work

Compound: COc1c2n(cc(C(=O)Nc3cccc(-c4cn(-c5c(C)cc(C)cc5C)nn4)c3)c1=O)C[C@H]1OC[C@H](C)N1C2=O [compound 7]
- apoptosis, G2/M phase arrest, and DNA damage (HepG2 cells; concentration-dependent): induced
- IC50 (HepG2 cells): 4.07 ± 0.09 µM

Compound: COc1cc(/C=C/C(=O)c2ccc3c(c2)NC(=O)CO3)cc(OC)c1 [compound 4]
- A549 lung cancer cell growth (A549 lung cancer cell): effectively suppressed

Compound: COc1ccc(/C=C/C(=O)c2ccc(-n3cc(CN4CCN(c5cc6c(cc5F)c(=O)c(C(=O)O)cn6C5CC5)CC4)nn3)cc2)cc1OC [compound 10]
- IC50 (topoisomerase II [1]): 19.7 ± 0.79 µM
- IC50 (HCT116 cells [2]): 10.6 ± 0.8 µM

Compound: Cc1ccc(NC(=O)Cn2cc(CSc3nc4ccccc4c(=O)n3-c3ccccc3)nn2)cc1 [compound 8]
- tubulin polymerization inhibition (tubulin polymerization): significantly inhibited
- topoisomerase I inhibition (topoisomerase I): significantly inhibited
- topoisomerase II inhibition (topoisomerase II [3]): significantly inhibited
- γ-H2AX protein expression (HCT116 cells [4]; HCT116): upregulated
- IC50 (HCT116 cells [4]): 4.87 ± 0.78 µM

Compound: O=C1COc2ccc(-c3[nH]c(-c4ccc(C(F)(F)F)cc4)nc3-c3ccccc3)cc2N1 [compound 5]
- viability of A549 cells (A549 [5]): significantly reduced
- viability of MV4-11 cells (MV4-11): significantly reduced
- viability of DLD-1 cells (DLD-1): significantly reduced

Compound: COc1ccc(-c2nc3ccccc3c(=O)n2C/C=C/c2ccc(C(=O)CN3C(=O)COc4ccccc43)cc2)c(OC)c1OC [compound 3]
- GI50 (A549 cells [6]): 0.32 µM

Compound: O=C1COc2ccc(NC(=O)c3cccc(-c4cn(Cc5ccc(F)cc5Cl)nn4)c3)cc2N1 [Compound 13t]
- viability at 48 h, 40 µM [7]: 103 ± 2.67%
- viability at 40 µM (A549 [8]; A549, 40 μM, 48 h): 96.6 ± 2.07%
- viability at 40 µM (SKOV3): 97.2 ± 1.54%
- viability at 40 µM (MCF-7): 97.9 ± 2.53%
- viability at 40 µM (Huh7): 101 ± 3.53%
- viability at 40 µM (HCT-116): 114 ± 1.76%

Compound: N#Cc1ccc(-n2nnc3c2-c2cc(Cl)c4cccnc4c2OC3)cc1 [compound 9]
- IC50 (HeLa cells): 3.38 ± 1.14 µM

- IC50 (A549 [8]; A549, 48 h, read-out: IC50 48 h): 55.2 ± 1.56 µM
- IC50 (A549 [8]; A549, 72 h, read-out: IC50 72 h): 53.3 ± 6.64 µM
Compound: O=C1COc2ccc(NC(=O)c3cccc(-c4cn(Cc5ccc(F)c(Cl)c5)nn4)c3)cc2N1 [Compound 13f]
- viability at 48 h, 40 µM [7]: 124 ± 3.82%
- viability at 40 µM (A549 [8]; A549, 40 μM, 48 h): 44.5 ± 3.23%
- inhibition at 40 µM (A549 [8]; A549, 40 μM, 48 h, read-out: inhibition rate): > 50%
- viability at 40 µM (SKOV3): 83.7 ± 1.74%
- viability at 40 µM (MCF-7): 85.5 ± 2.2%
- viability at 40 µM (Huh7): 88.4 ± 1.3%
- viability at 40 µM (HCT-116): 68 ± 5.4%

Compound: COc1ccc(N2C(=O)COc3ccc(-c4cnc(OC)c(NS(=O)(=O)c5ccc(F)cc5)c4)cc32)cc1 [compound 6]
- IC50 (A549 cells [9]): 1.22 µM
- IC50 (HeLa): 1.35 µM
- IC50 (PI3Kα): 0.00063 µM
- oral bioavailability [10]: good
